Assay [1] concerns A375 melanoma cell line (BRAF V600E). The following applies: cited from earlier work.
For another assay, the system named is HEK 293FT cells. The assay is described as follows: Nuclease and double-nicking activity of potential nickases, SURVEYOR analysis (Example 10). In kind it is cell-based, human. Conditions: 400 ng nickase, 100 ng sgRNA. On the procedure: Nuclease and double-nicking activities for all potential nickases were tested in HEK 293FT cells as follows: co-transfection of 400 ng of nickase and 100 ng of U6-driven sgRNA (100 ng for one guide, or 50 ng each for a pair of sgRNAs) by Lipofectamine 2000 into ˜200,000 cells. DNAs from transfected cells were collected for SURVEYOR analysis.

In another assay the test system is RNA. Conditions: cited from earlier work.
Assay [2] concerns human EMX1 locus. The assay is described as follows: Sequencing of amplicons containing the EMX1 target locus. The format is cell-based. Conditions: 327 amplicons. On the procedure: HEK 293FT or N2A cells were transfected with plasmid DNA as described above. After transfection, the cells were incubated at 37° C. for 72 hours before genomic DNA extraction. Genomic DNA was extracted using the QuickExtract DNA extraction kit (Epicentre) following the manufacturer's protocol. Briefly, cells were resuspended in QuickExtract solution and incubated at 65° C. for 15 minutes and 98° C. for 10 minutes. Extracted genomic DNA was immediately processed or stored at −20° C.
Since DSBs in mammalian nuclei are partially repaired by the non-homologous end joining (NHEJ) pathway, which leads to the formation of indels, the Surveyor assay was used to detect potential cleavage activity at the target EMX1 locus (FIG. 7) (see e.g. Guschin et al., 2010, Methods Mol Biol 649: 247). Co-transfection of all four CRISPR components was able to induce up to 5.0% cleavage in the protospacer (see FIG. 2D). […] Removing any of the remaining three components abolished the genome cleavage activity of the CRISPR system (FIG. 2D). Sanger sequencing of amplicons containing the target locus verified the cleavage activity: in 43 sequenced clones, 5 mutated alleles (11.6%) were found. Similar experiments using a variety of guide sequences produced indel percentages as high as 29% (see FIGS. 3-6, 10, and 11).

In assay [3] the test system is human EMX1 locus. The assay is described as follows: Surveyor assay for genome modification at the human EMX1 locus in HEK 293FT cells. In kind it is cell-based. The following applies: co-expression with EMX1-targeting chimeric crRNA; n=3.
Procedure: Cells were transfected using Lipofectamine 2000 (Life Technologies) following the manufacturer's recommended protocol. For each well of a 24-well plate a total of 800 ng of plasmids were used.
Genomic DNA was extracted using the QuickExtract DNA extraction kit (Epicentre) following the manufacturer's protocol. […] Extracted genomic DNA was immediately processed or stored at −20° C.
The genomic region surrounding a CRISPR target site for each gene was PCR amplified, and products were purified using QiaQuick Spin Column (Qiagen) following manufacturer's protocol. A total of 400 ng of the purified PCR products were mixed with 2 μl 10× Taq polymerase PCR buffer (Enzymatics) and ultrapure water to a final volume of 20 μl, and subjected to a re-annealing process to enable heteroduplex formation: 95° C. for 10 min, 95° C. to 85° C. ramping at −2° C./s, 85° C. to 25° C. at −0.25° C./s, and 25° C. hold for 1 minute. After re-annealing, products were treated with Surveyor nuclease and Surveyor enhancer S (Transgenomics) following the manufacturer's recommended protocol, and analyzed on 4-20% Novex TBE poly-acrylamide gels (Life Technologies). Gels were stained with SYBR Gold DNA stain (Life Technologies) for 30 minutes and imaged with a Gel Doc gel imaging system (Bio-rad). Quantification was based on relative band intensities, as a measure of the fraction of cleaved DNA.
Assay [4] relates to target DNA with 5′-NGG PAM. The assay is described as follows: Cleavage of target DNA bearing 5′-NGG PAM by PI domain chimeras (Example 12). Conditions: 5′-GGGCT. In kind it is cell-based, human. On the procedure:
Cells were transfected using Lipofectamine 2000 (Life Technologies) at 70-80% confluency following the manufacturer's recommended protocol.
Genomic DNA was extracted using the QuickExtract DNA Extraction Solution (Epicentre) following the manufacturer's protocol.
400 ng total of the purified PCR products were mixed with 2 μl 10× Taq DNA Polymerase PCR buffer (Enzymatics) and ultrapure water to a final volume of 20 μl, and subjected to a re-annealing process to enable heteroduplex formation: 95° C. for 10 min, 95° C. to 85° C. ramping at −2° C./s, 85° C. to 25° C. at −0.25° C./s, and 25° C. hold for 1 min. After re-annealing, products were treated with SURVEYOR nuclease and SURVEYOR enhancer S (Transgenomics) following the manufacturer's recommended protocol, and analyzed on 4-20% Novex TBE poly-acrylamide gels (Life Technologies). Gels were stained with SYBR Gold DNA stain (Life Technologies) for 30 min and imaged with a Gel Doc gel imaging system (Bio-rad). Quantification was based on relative band intensities. Indel percentage was determined by the formula, 100×(1−(1−(b+c)/(a+b+c))^1/2), where a is the integrated intensity of the undigested PCR product, and b and c are the integrated intensities of each cleavage product.

With `CCCS(=O)(=O)Nc1ccc(F)c(C(=O)c2c[nH]c3ncc(Cl)cc23)c1F` [PLX4720], the “sensitivity of cell line to BRAF inhibitor” value in assay [1] is reported as “naturally sensitive”.
Turning to “Cbh-hSpCas9(D10A)-NLS: SpCas9 RuvCI mutant D10A, homology set”, the “Functional?” value in the assay on HEK 293FT cells is reported as “nickase activity”.
As to “Cbh-hSpCas9(H840A)-NLS: SpCas9 HNH mutant H840A, homology set”, the “Functional?” value with HEK 293FT cells was “no activity”.
Regarding “N55K mutant: N55K mutant of the MS2 bacteriophage coat protein”, in the assay with RNA, the binding affinity entry is “higher binding affinity than wild type MS2”.
Regarding “SpCas9n: SpCas9 with aspartate-to-alanine substitution (D10A) in the RuvC I catalytic domain, a nickase”, in the assay on human EMX1 locus [2], the “indels detected by sequencing” value is “did not detect any indels”. Besides, the “indels at the EMX1 protospacer target” value in the assay with human EMX1 locus [3] is on record as “does not generate indels”.

B1: Sp-St3Cas9: SpCas9 with the PI domain of St3Cas9, SEQ ID NO: 121 (protein)
chain: MDYKDHDGDYKDHDIDYKDDDDKMAPKKKRKVGIHGVPAADKKYSIGLDIGTNSVGWAVITDEYKVPSKKFKVLGNTDRHSIKKNLIGALLFDSGETAEATRLKRTARRRYTRRKNRICYLQEIFSNEMAKVDDSFFHRLEESFLVEEDKKHERHPIFGNIVDEVAYHEKYPTIYHLRKKLVDSTDKADLRLIYLALAHMIKFRGHFLIEGDLNPDNSDVDKLFIQLVQTYNQLFEENPINASGVDAKAILSARLSKSRRLENLIAQLPGEKKNGLFGNLIALSLGLTPNFKSNFDLAEDAKLQLSKDTYDDDLDNLLAQIGDQYADLFLAAKNLSDAILLSDILRVNTEITKAPLSASMIKRYDEHHQDLTLLKALVRQQLPEKYKEIFFDQSKNGYAGYIDGGASQEEFYKFIKPILEKMDGTEELLVKLNREDLLRKQRTFDNGSIPHQIHLGELHAILRRQEDFYPFLKDNREKIEKILTFRIPYYVGPLARGNSRFAWMTRKSEETITPWNFEEVVDKGASAQSFIERMTNFDKNLPNEKVLPKHSLLYEYFTVYNELTKVKYVTEGMRKPAFLSGEQKKAIVDLLFKTNRKVTVKQLKEDYFKKIECFDSVEISGVEDRFNASLGTYHDLLKIIKDKDFLDNEENEDILEDIVLTLTLFEDREMIEERLKTYAHLFDDKVMKQLKRRRYTGWGRLSRKLINGIRDKQSGKTILDFLKSDGFANRNFMQLIHDDSLTFKEDIQKAQVSGQGDSLHEHIANLAGSPAIKKGILQTVKVVDELVKVMGRHKPENIVIEMARENQTTQKGQKNSRERMKRIEEGIKELGSQILKEHPVENTQLQNEKLYLYYLQNGRDMYVDQELDINRLSDYDVDHIVPQSFLKDDSIDNKVLTRSDKNRGKSDNVPSEEVVKKMKNYWRQLLNAKLITQRKFDNLTKAERGGLSELDKAGFIKRQLVETRQITKHVAQILDSRMNTKYDENDKLIREVKVITLKSKLVSDFRKDFQFYKVREINNYHHAHDAYLNAVVGTALIKKYPKLESEFVYGDYKVYDVRKMIAKSEQEIGKATAKYFFYSNIMNFFKTEITLANGEIRKRPLIETNGETGEIVWDKGRDFATVRKVLSMPQVNIVKKTVEEQNHGLDRGKPKGLFNANLSSKPKPNSNENLVGAKEYLDPKKYGYGGYAGISNSFTVLVKGTIEKGAKKKITNVLEFQGISILDRINYRKDKLNFLLEKGYKDIELIIELPKYSLFELSDGSRRMLASILSTNNKRGEIHKGNQIFLSQKFVKLLYHAKRISNTINENHRKYVENHKKEFEELFYYILEFNENYVGAKKNGKLLNSAFQSWQNHSIDELCSSFIGPTGSERKGLFELTSRGSAADFEFLGVKIPRYRDYTPSSLLKDATLIHQSVTGLYETRIDLAKLGEGKRPAATKKAGQAKKKK
As for B1, the “cleavage of target DNA with 5′-NGG PAM” value in assay [4] is listed as “retained cleavage activity for the target DNA with 5′-NGG PAM, albeit at a lower level than that of SpCas9”.

The values above are taken from patent publication US11597919B2, “Systems, methods and compositions for sequence manipulation with optimized functional CRISPR-Cas systems” (The Broad Institute, Inc., priority 2013, dated 2023).
